We go through 13 compounds from patent publication US20250368666A1, “INDAZOLE COMPOUNDS” (TYRA BIOSCIENCES, INC., priority 2022, published 2025).

Counter-ions that a name gives are not always drawn. Like-named read-outs stand apart in the source and are kept apart here.

In assay [1] the test system is HuH7 cell line (FGF19 amplification). Description: Cancer cell line cell viability assay (Cell Titer-Glo), 120 hr. Format: cell-based. To be noted: Homo sapiens, Huh-7. The source says:
Experimental Purpose: To detect the change of intracellular ATP by Cell Titer-Glo® and to evaluate the inhibitory effect of the compounds on cancer cell lines by determining the in vitro IC50 value of the compounds.
Cell Titer-Glo® 2.0 Luminescent cell viability assay reagent was purchased from Promega (Madison, WI). KG-1, KATO-III, and MDA-MB-453 cell lines were purchased from American Type Culture Collection (Manassas, VA). RT112/84 cell line was purchased from Millipore-Sigma (St. Louis, MO). HuH7 cells were purchased from Seikisui Xenotech (Kansas City, KS). RT112/84 and MDA-MB-453 cells were cultured in RPMI1640 media supplemented with 10% fetal bovine serum. KG-1 and KATO-III cell lines were cultured in IMDM media supplemented with 20% FBS. HuH7 cells were cultured in IMDM media supplemented with 10% FBS. Cultures were maintained at 37° C. in a humidified atmosphere of 5% CO2 and 95% air.
Cell Viability Assay Procedure: Cells were plated in 96-well clear bottom/white plates (Corning #3903) at a range of densities depending on the optimal assay window (5,000-20,000 cells/well in […] of media), incubated overnight. The next day, test compound DMSO stock solutions were made at 10 mM and […] final concentration. Compounds were then added to cells in a 9-dose, 4-fold dilution series starting at 3 μM with an HP 300e Digital Dispenser (each dose was applied in triplicate). DMSO was backfilled to each well up to 301 nL total volume of test compound+DMSO, and a total of 301 nL DMSO was added to a control/no test compound well in triplicate. The cells in cell culture plates were incubated with the compounds at 37° C. and 5% CO2 for 72 hours-120 hours depending on the cell line. Then 50 μl of Cell Titer Glo 2.0 reagent was added to each well of the cell culture plates. The contents were covered from light and mixed on an orbital shaker at room temperature for minimum of 10 min. Luminescence was recorded by a Clariostar Plus Microplate Reader (BMG Labtech, Cary, NC). Cells were assessed as a percentage of DMSO only treated control cells. Curves were plotted and IC50 values were calculated using the GraphPad Prism 9 program based on a sigmoidal dose-response equation (log (inhibitor) vs. response—Variable slope, 4-parameter).

Another assay deals with T1, FGFR1 (Homo sapiens, UniProt P11362).
T1 construct: made in house; host or cells: E. coli (BL21-derived), T7 phage
In words: Kinase binding assay (kinase-tagged T7 phage, affinity beads, qPCR), Kd. As to conditions: read-out: FGFR1 (Kd nM). The gist of the method: (§1)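 First, phage lysates carrying tagged kinase are made in E. coli at 32° C. Next, they are combined with blocked biotin-ligand streptavidin beads and compound at 0.9% final DMSO. Finally, eluted kinase is measured by qPCR and Kd is fitted with the Hill equation.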
In general terms: In qPCR the cycle at which signal appears reflects the starting amount.

For another assay, the target named is T2, FGFR3 (V555M) (Homo sapiens, UniProt P22607, V555M).
T2 construct: made in house; host or cells: E. coli (BL21-derived), T7 phage
The description is as above. To be noted: V555M mutant; read-out: FGFR3 (V555M) (Kd nM). The gist of the method:
as §1

Another assay concerns the target T3, FGFR2 (Homo sapiens, UniProt P21802).
T3 construct: made in house; host or cells: E. coli (BL21-derived), T7 phage
Described as above. To be noted: read-out: FGFR2 (Kd nM). The gist of the method:
as §1

The next assay has as its target T4, FGFR4 (Homo sapiens, UniProt P22455).
T4 construct: made in house; host or cells: E. coli (BL21-derived), T7 phage
Described as above. To be noted: read-out: FGFR4 (Kd nM). In a few lines:
as §1

Another assay deals with T5, FGFR3 (Homo sapiens, UniProt P22607).
T5 construct: made in house; host or cells: E. coli (BL21-derived), T7 phage
The assay is described as above. To be noted: read-out: FGFR3 (Kd nM). The gist of the method: as §1

[2] abbreviates: kinase binding assay, 11-point 3-fold dilution series.

T2 sequence (P22607 23-806 V555M): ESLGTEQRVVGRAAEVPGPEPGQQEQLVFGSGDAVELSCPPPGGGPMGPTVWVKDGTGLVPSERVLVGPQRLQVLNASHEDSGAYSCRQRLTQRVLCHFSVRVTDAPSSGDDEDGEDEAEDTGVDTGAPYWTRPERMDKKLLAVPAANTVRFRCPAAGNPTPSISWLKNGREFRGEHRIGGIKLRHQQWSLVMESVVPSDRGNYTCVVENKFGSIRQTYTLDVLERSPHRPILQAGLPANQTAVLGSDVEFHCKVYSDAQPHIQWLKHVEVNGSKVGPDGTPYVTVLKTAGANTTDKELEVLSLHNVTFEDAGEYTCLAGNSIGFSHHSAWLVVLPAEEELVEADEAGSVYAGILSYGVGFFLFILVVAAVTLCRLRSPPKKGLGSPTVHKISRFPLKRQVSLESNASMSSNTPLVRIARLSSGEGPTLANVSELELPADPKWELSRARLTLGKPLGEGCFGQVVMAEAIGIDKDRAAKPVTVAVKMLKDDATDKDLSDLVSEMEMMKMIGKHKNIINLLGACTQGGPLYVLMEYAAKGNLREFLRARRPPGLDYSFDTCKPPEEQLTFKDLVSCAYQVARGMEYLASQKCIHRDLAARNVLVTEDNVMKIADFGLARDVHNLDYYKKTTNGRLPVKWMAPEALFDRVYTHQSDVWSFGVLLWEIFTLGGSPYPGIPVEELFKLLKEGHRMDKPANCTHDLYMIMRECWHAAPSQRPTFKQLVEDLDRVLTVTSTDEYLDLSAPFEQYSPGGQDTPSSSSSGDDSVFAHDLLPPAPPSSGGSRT
T5 sequence (P22607 23-806): as the sequence (P22607 23-806 V555M) above, with M533V counted along it
T3 sequence (P21802 22-821): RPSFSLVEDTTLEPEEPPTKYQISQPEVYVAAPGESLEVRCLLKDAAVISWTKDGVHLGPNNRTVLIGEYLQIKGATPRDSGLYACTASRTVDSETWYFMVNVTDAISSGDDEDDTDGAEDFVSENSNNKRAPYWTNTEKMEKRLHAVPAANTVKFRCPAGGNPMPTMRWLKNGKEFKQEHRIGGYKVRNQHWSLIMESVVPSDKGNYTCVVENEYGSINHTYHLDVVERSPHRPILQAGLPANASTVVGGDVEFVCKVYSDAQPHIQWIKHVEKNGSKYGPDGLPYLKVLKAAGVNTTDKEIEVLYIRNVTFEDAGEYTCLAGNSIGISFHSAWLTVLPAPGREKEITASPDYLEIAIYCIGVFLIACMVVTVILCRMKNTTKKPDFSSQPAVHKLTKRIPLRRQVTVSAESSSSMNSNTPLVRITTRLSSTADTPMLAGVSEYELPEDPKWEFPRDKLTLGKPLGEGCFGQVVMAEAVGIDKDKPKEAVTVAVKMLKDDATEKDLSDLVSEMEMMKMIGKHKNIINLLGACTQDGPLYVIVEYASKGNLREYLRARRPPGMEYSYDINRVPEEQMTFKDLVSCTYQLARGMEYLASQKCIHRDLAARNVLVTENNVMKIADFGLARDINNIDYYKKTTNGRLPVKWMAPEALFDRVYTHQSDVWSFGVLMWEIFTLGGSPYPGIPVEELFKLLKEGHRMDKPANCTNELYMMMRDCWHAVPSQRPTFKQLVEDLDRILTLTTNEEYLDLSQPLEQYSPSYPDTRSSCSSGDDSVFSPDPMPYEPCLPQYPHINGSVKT
T1 sequence (P11362 22-822): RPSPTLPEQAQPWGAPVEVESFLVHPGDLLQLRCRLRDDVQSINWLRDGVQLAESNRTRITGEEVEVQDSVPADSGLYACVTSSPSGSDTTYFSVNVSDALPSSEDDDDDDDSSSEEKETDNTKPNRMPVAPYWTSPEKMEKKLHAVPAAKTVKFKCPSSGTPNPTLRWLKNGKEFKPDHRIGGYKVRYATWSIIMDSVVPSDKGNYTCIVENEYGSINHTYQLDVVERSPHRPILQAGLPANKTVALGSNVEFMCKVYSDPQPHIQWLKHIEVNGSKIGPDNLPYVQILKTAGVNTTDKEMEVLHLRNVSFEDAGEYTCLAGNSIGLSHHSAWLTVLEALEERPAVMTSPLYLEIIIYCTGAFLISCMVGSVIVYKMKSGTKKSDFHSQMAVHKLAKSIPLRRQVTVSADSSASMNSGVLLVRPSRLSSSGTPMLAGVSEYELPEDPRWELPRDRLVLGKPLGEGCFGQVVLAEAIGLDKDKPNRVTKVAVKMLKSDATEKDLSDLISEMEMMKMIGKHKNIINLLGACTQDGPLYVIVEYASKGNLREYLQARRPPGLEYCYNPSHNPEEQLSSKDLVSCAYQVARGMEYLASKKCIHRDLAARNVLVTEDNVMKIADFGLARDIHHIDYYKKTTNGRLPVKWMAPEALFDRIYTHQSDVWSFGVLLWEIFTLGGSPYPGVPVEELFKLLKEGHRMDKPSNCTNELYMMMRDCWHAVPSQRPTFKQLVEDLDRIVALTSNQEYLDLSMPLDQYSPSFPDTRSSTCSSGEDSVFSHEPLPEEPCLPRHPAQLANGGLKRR
T4 sequence (P22455 22-802): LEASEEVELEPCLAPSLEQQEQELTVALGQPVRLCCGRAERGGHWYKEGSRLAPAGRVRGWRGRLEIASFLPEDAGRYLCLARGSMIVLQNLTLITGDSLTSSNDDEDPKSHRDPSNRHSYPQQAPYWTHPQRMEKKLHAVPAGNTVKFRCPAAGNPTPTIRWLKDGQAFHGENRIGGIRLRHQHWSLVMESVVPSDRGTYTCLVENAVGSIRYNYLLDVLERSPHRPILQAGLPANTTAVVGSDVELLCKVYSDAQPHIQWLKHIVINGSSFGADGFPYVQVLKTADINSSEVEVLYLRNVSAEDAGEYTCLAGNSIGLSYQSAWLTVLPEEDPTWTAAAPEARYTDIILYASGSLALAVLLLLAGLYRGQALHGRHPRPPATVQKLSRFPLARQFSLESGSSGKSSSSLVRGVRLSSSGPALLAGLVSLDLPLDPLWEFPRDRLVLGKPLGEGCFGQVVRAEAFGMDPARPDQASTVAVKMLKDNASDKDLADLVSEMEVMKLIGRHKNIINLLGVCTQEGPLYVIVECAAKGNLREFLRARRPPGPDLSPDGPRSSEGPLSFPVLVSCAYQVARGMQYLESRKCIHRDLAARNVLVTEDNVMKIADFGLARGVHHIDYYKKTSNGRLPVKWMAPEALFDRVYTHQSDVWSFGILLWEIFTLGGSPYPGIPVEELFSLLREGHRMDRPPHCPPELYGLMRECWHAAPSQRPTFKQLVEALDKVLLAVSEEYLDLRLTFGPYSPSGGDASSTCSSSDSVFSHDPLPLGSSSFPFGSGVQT

What is called IC50 is the concentration that inhibits the measured activity by half. The low end stands for greater potency, the high end for weaker potency. In general, Kd refers to the constant that tells how readily two partners part at equilibrium. The compound `COc1cc2[nH]nc(-c3cnc(N4CC(C)(N(C)C)C4)c(S(C)(=O)=O)c3)c2cc1O[C@H](C)c1c(Cl)cncc1Cl` [Example 1, (R)-1-(5-(5-(1-(3,5-dichloropyridin-4-yl)ethoxy)-6-methoxy-1H-indazol-3-y1)-3-(methylsulfonyl)pyridin-2-yl)-N,N,3-trimethylazetidin-3-amine] returned a 50% inhibitory concentration (IC50) in assay [1] of 0.1 to 50 nM. Also, the Kd at FGFR1, at FGFR3 (V555M), on FGFR2, on FGFR4 and at FGFR3 was 1 to 50 nM throughout.
`C[C@@H](Oc1cc2c(-c3cnc(N4CC(C)(CP(C)(C)=O)C4)c(C#N)c3)n[nH]c2cc1F)c1c(Cl)cncc1Cl` [Example 11, (R)-5-(5-(1-(3,5-dichloropyridin-4-yl)ethoxy)-6-fluoro-1H-indazol-3-yl)-2-(3-((dimethylphosphoryl)methyl)-3-methylazetidin-1-yl)nicotinonitrile] yielded a half-inhibitory concentration (IC50) in assay [1] of 0.1 to 50 nM. Further, the Kd on FGFR1 lay in the range of 50 to 300 nM; on FGFR3 (V555M) it was 1 to 50 nM; at FGFR2, 1 to 50 nM; at FGFR4, 1 to 50 nM; on FGFR3, 1 to 50 nM.
Regarding `COc1cc2[nH]nc(-c3cnc(N4CC(C)(NC5CCC5)C4)c(C#N)c3)c2cc1O[C@H](C)c1c(Cl)cncc1Cl` [Example 12, (R)-2-(3-(cyclobutylamino)-3-methylazetidin-1-yl)-5-(5-(1-(3,5-dichloropyridin-4-yl)ethoxy)-6-methoxy-1H-indazol-3-yl)nicotinonitrile], the half-maximal inhibitory concentration (IC50) in assay [1] lay in the range of 0.1 to 50 nM. For the same compound, the Kd on FGFR1, on FGFR3 (V555M), on FGFR2, at FGFR4 and at FGFR3 was 1 to 50 nM each time.
As for `CCC1(NCC2CC2)CN(c2ncc(-c3n[nH]c4cc(OC)c(O[C@H](C)c5c(Cl)cncc5Cl)cc34)cc2C#N)C1` [Example 348, (R)-2-(3-((Cyclopropylmethyl)amino)-3-ethylazetidin-1-yl)-5-(5-(1-(3,5-dichloropyridin-4-yl)ethoxy)-6-methoxy-1H-indazol-3-yl)nicotinonitrile dihydrochloride], the half-maximal inhibitory concentration (IC50) in assay [1] fell in the range of 0.1 to 50 nM. The equilibrium dissociation constant (Kd) on FGFR1, on FGFR2, on FGFR4 and at FGFR3 was 1 to 50 nM in each case.
As for `COc1cc2[nH]nc(-c3cc(C#N)c(N4CC(C)(N(C)C)C4)nn3)c2cc1O[C@H](C)c1c(Cl)cncc1Cl` [Example 349, (R)-6-(5-(1-(3,5-dichloropyridin-4-yl)ethoxy)-6-methoxy-1H-indazol-3-yl)-3-(3-(dimethylamino)-3-methylazetidin-1-yl)pyridazine-4-carbonitrile], the IC50 in assay [1] lay in the range of 0.1 to 50 nM. For the same compound, the Kd on FGFR1, at FGFR2, at FGFR4 and on FGFR3 was 1 to 50 nM in each case.
Compound `COc1cc2[nH]nc(-c3cnc(N4CC(CC#N)(NCC5CC5)C4)c(C#N)c3)c2cc1O[C@H](C)c1c(Cl)cnc(C)c1Cl` [Example 350, (R)-2-(3-(Cyanomethyl)-3-((cyclopropyl-methyl)ami-no)azetidin-1-yl)-5-(5-(1-(3,5-dichloro-2-methylpyridin-4-yl)ethoxy)-6-methoxy-1H-indazol-3-yl)nicotinonitrile] gave a 50% inhibitory concentration (IC50) in assay [1] of 0.1 to 50 nM. For the same compound, the dissociation constant Kd was in the range of 50 to 300 nM at FGFR1, 1 to 50 nM at FGFR2, 1 to 50 nM on FGFR4 and 1 to 50 nM on FGFR3.
In the case of `COc1cc2[nH]nc(-c3cnc(N4CC(C)(NCC(C)C)C4)c(C#N)c3)c2cc1O[C@H](C)c1c(Cl)cnc(C)c1Cl` [Example 355, 5-[5-[(1R)-1-(3,5-dichloro-2-methyl-4-pyridyl)ethoxy]-6-methoxy-1H-indazol-3-yl]-2-[3-(isobutylamino)-3-methyl-azetidin-1-yl]pyridine-3-carbonitrile], in assay [1], the IC50 lay within 50 to 200 nM. The Kd was in the range of 1 to 50 nM at FGFR1, 50 to 300 nM at FGFR2, 1 to 50 nM at FGFR4 and 1 to 50 nM on FGFR3.
Regarding `COc1cc2[nH]nc(-c3cnc(N4CC(CC#N)(N(C)C(C)C)C4)c(C#N)c3)c2cc1O[C@H](C)c1c(Cl)cncc1Cl` [Example 358, (R)-2-(3-(cyanomethyl)-3-(isopropyl(methyl)-amino)azetidin-1-yl)-5-(5-(1-(3,5-dichloropyridin-4-yl)ethoxy)-6-methoxy-1H-indazol-3-yl)nicotinonitrile], the 50% inhibitory concentration (IC50) in assay [1] was 0.1 to 50 nM. The Kd at FGFR1 lay within 1 to 50 nM; on FGFR2, 50 to 300 nM; at FGFR4 it was 1 to 50 nM; on FGFR3, 1 to 50 nM.
In turn, `COc1cc2[nH]nc(-c3cnc(N4CC(N)(Cc5ccn(C)n5)C4)c(C#N)c3)c2cc1O[C@H](C)c1c(Cl)cncc1Cl` [Example 366, (R)-2-(3-amino-3-((1-methyl-1H-pyrazol-3-yl)methyl)azetidin-1-yl)-5-(5-(1-(3,5-dichloropyridin-4-yl)ethoxy)-6-methoxy-1H-indazol-3-yl)nicotinonitrile] displayed an IC50 in assay [1] of 0.1 to 50 nM. Further, the Kd on FGFR1, at FGFR2, at FGFR4 and on FGFR3 was 1 to 50 nM in each case.
Compound `COc1cc2[nH]nc(-c3cnc(N4CCC(C)(N)CC4)c(C#N)c3)c2cc1O[C@H](C)c1c(Cl)cncc1Cl` [Example 368, (R)-2-(4-amino-4-methylpiperidin-1-yl)-5-(5-(1-(3,5-dichloropyridin-4-yl)ethoxy)-6-methoxy-1H-indazol-3-yl)nicotinonitrile] gave an IC50 in assay [1] of 0.1 to 50 nM. In addition, the dissociation constant (Kd) on FGFR1, at FGFR2, on FGFR4 and at FGFR3 was 1 to 50 nM in each case.
In turn, `COc1cc2[nH]nc(-c3cnc(N4CC(C)(O)C4)c(C#N)c3)c2cc1O[C@H](C)c1c(Cl)cncc1Cl` [Example 370, 5-[5-[(1R)-1-(3,5-dichloro-4-pyridyl)ethoxy]-6-methoxy-1H-indazol-3-yl]-2-(3-hydroxy-3-methyl-azetidin-1-yl)pyridine-3-carbonitrile] showed an IC50 in assay [1] of 0.1 to 50 nM. The dissociation constant (Kd) on FGFR1, at FGFR2, at FGFR4 and at FGFR3 was 1 to 50 nM each time.
For the compound `COc1cc2[nH]nc(-c3cnc(N4CC[C@@](C)(NCC5CC5)C4)c(C#N)c3)c2cc1O[C@H](C)c1c(Cl)cncc1Cl` [Example 409, 2-((R)-3-((cyclo-propylmethyl)-amino)-3-methylpyrrolidin-1-yl)-5-(5-((R)-1-(3,5-dichloropyridin-4-yl)ethoxy)-6-methoxy-1H-indazol-3-yl)nicotinonitrile], the concentration for half-maximal inhibition (IC50) in assay [1] fell in the range of 0.1 to 50 nM. Further, the equilibrium dissociation constant (Kd) at FGFR1 (setting [2]), on FGFR2 (setting [2]), on FGFR4 (setting [2]) and on FGFR3 (setting [2]) was 1 to 50 nM in each case.
`COc1cc2[nH]nc(-c3cnc(N4CC[C@](C)(NCC5CC5)C4)c(C#N)c3)c2cc1O[C@H](C)c1c(Cl)cncc1Cl` [Example 410, 2-((S)-3-((cyclopropyl-methyl)-amino)-3-methylpyrrolidin-1-yl)-5-(5-((R)-1-(3,5-dichloropyridin-4-yl)ethoxy)-6-methoxy-1H-indazol-3-yl)nicotinonitrile]: the concentration for half-maximal inhibition (IC50) in assay [1] was in the range of 0.1 to 50 nM. In addition, the equilibrium dissociation constant (Kd) at FGFR1 (setting [2]), at FGFR2 (setting [2]), at FGFR4 (setting [2]) and on FGFR3 (setting [2]) was 1 to 50 nM throughout.
